Assay results: US4452778A, “Synergistic antibacterial compositions and method of treatment of infections caused by multiple antibiotic-resistant organisms” (Eli Lilly and Company, priority 1981, dated 1984)
Where two headings read alike, the source gives them in different places.

Tested on: Serratia marcescens
Experiment: Checkerboard broth dilution synergy study (mic)
Format: cell-based
Details: for MIC: Serratia marcescens, read-out: mic, drug alone

COC1(NC(=O)C(C(=O)O)c2ccc(O)cc2)C(=O)N2C(C(=O)O)=C(CSc3nnnn3C)COC21 (stereo not shown) [1-oxa compound I, moxalactam]
MIC (Table II, strain 100): 0.25 µg/mL | MIC (Table II, strain 302-2): 1 µg/mL | MIC (Table II, strain 796): 8 µg/mL | MIC (Table II, strain 14142): 1 µg/mL | MIC (Table II, strain Townsend): 4 µg/mL | MIC (Table III, isolate 463-2): 8 µg/mL | MIC (Table III, isolate 606): 4 µg/mL | MIC (Table III, isolate 1414): 1 µg/mL | MIC (Table III, isolate B377): 8 µg/mL | MIC (Table III, isolate Ziegler): 4 µg/mL | mic of each drug in combination I + P (Table II, strain 100): 0.12 µg/mL | mic of each drug in combination I + T (Table II, strain 100): 0.12 µg/mL | mic of each drug in combination I + P (Table II, strain 302-2): 0.12 µg/mL | mic of each drug in combination I + T (Table II, strain 302-2): 0.12 µg/mL | mic of each drug in combination I + P (Table II, strain 796): 2 µg/mL | mic of each drug in combination I + T (Table II, strain 796): 2 µg/mL | mic of each drug in combination I + P (Table II, strain 14142): 0.12 µg/mL | mic of each drug in combination I + T (Table II, strain 14142): 0.25 µg/mL | mic of each drug in combination I + P (Table II, strain Townsend): 2 µg/mL | mic of each drug in combination I + T (Table II, strain Townsend): 1 µg/mL | mic of each drug in combination I + A (Table III, isolate 463-2): < 0.06 µg/mL | mic of each drug in combination I + A (Table III, isolate 606): 0.5 µg/mL | mic of each drug in combination I + A (Table III, isolate 1414): 0.06 µg/mL | mic of each drug in combination I + A (Table III, isolate B377): 0.12 µg/mL | mic of each drug in combination I + A (Table III, isolate Ziegler): 0.06 µg/mL
